According to the supplement of paper PMC13380429:
± gives the standard deviation of the averaged measurements.

Legend:
Conditions in all cases: 72 h
Caco-2 [1] = assay: cell viability relative to DMSO; higher = less toxic
Calu-3 [2] = assay: as above
HepG2 [3] = assay: as above
U2OS [4] = assay: as above
Vero E6 [5] = assay: as above
Caco-2 [6] = assay: relative viability EC50 (midpoint between 100% and the lowest measured viability); higher = less toxic
Calu-3 [7] = assay: as above
HepG2 [8] = assay: as above
U2OS [9] = assay: as above
Vero E6 [10] = assay: as above
Caco-2 [11] = assay: drug sensitivity score (DSS) for viability; higher = more toxic; extreme values may be limits of the assay
Calu-3 [12] = assay: as above
HepG2 [13] = assay: as above
U2OS [14] = assay: as above
Vero E6 [15] = assay: as above

| Compound | cell viability (Caco-2 [1]; 1 nM) [%] | cell viability (Caco-2 [1]; 10 nM) [%] | cell viability (Caco-2 [1]; 100 nM) [%] | cell viability (Caco-2 [1]; 1000 nM) [%] | cell viability (Caco-2 [1]; 10000 nM) [%] | cell viability (Calu-3 [2]; 1 nM) [%] | cell viability (Calu-3 [2]; 10 nM) [%] | cell viability (Calu-3 [2]; 100 nM) [%] | cell viability (Calu-3 [2]; 1000 nM) [%] | cell viability (Calu-3 [2]; 10000 nM) [%] | cell viability (HepG2 [3]; 1 nM) [%] | cell viability (HepG2 [3]; 10 nM) [%] | cell viability (HepG2 [3]; 100 nM) [%] | cell viability (HepG2 [3]; 1000 nM) [%] | cell viability (HepG2 [3]; 10000 nM) [%] | cell viability (U2OS [4]; 1 nM) [%] | cell viability (U2OS [4]; 10 nM) [%] | cell viability (U2OS [4]; 100 nM) [%] | cell viability (U2OS [4]; 1000 nM) [%] | cell viability (U2OS [4]; 10000 nM) [%] | cell viability (Vero E6 [5]; 1 nM) [%] | cell viability (Vero E6 [5]; 10 nM) [%] | cell viability (Vero E6 [5]; 100 nM) [%] | cell viability (Vero E6 [5]; 1000 nM) [%] | cell viability (Vero E6 [5]; 10000 nM) [%] | relative viability EC50 (Caco-2 [6]) [µM] | relative viability EC50 (Calu-3 [7]) [µM] | relative viability EC50 (HepG2 [8]) [µM] | relative viability EC50 (U2OS [9]) [µM] | relative viability EC50 (Vero E6 [10]) [µM] | drug sensitivity score (Caco-2 [11]) | drug sensitivity score (Calu-3 [12]) | drug sensitivity score (HepG2 [13]) | drug sensitivity score (U2OS [14]) | drug sensitivity score (Vero E6 [15]) |
| --- | --- | --- | --- | --- | --- | --- | --- | --- | --- | --- | --- | --- | --- | --- | --- | --- | --- | --- | --- | --- | --- | --- | --- | --- | --- | --- | --- | --- | --- | --- | --- | --- | --- | --- | --- |
| Oc1c(I)cc(Cl)c2cccnc12 [clioquinol] | 93.5 | 92.2 | 108 | 99.7 | 85.8 | 95 | 93.2 | 104 | 87.8 | 97.1 | 101 | 98.7 | 92.8 | 104 | 75.6 | 97.1 | 93.6 | 100 | 96.4 | 99.5 | 106 | 99.3 | 108 | 111 | 87.2 | > 10 | > 10 | > 10 | > 10 | > 10 | 0.2 | 0 | 0.7 | 0 | 0 |
| C[C@@H]1Cc2c([nH]c3ccccc23)[C@@H](c2c(F)cc(/C=C/C(=O)O)cc2F)N1CC(C)(C)F [AZD9496] | 94.2 | 104 | 99.6 | 94.7 | 93.5 | 97.1 | 91.7 | 90.8 | 93.6 | 105 | 103 | 90 | 104 | 98.8 | 97.5 | 98.8 | 100 | 99 | 102 | 98.9 | 102 | 100 | 104 | 101 | 91.7 | > 10 | > 10 | > 10 | > 10 | > 10 | 0 | 0 | 0 | 0 | 0 |
| CN(C/C=C/C#CC(C)(C)C)Cc1cccc2ccccc12 [terbinafine] | 93 | 81.1 | 90.5 | 112 | 88.5 | 103 | 102 | 106 | 92.9 | 114 | 99.4 | 91.9 | 101 | 99.6 | 89 | 103 | 98.9 | 95.3 | 99.5 | 102 | 104 | 94.2 | 109 | 94.5 | 95.6 | > 10 | > 10 | > 10 | > 10 | > 10 | 0 | 0 | 0 | 0 | 0 |
| COc1ccc(NS(=O)(=O)c2sc3ccc(Cl)cc3c2C)cc1N1CCNCC1 | 98.9 | 98.7 | 104 | 102 | 96.1 | 104 | 105 | 108 | 105 | 98.1 | 108 | 104 | 106 | 109 | 87.4 | 99.9 | 96 | 97.2 | 98.5 | 94.5 | 93.3 | 98 | 97.6 | 94.4 | 103 | > 10 | > 10 | > 10 | > 10 | > 10 | 0 | 0 | 0 | 0 | 0 |
| O=C(NC1CCNCC1)[C@@H]1CC[C@@H]2CN1C(=O)N2OS(=O)(=O)O [relebactam] | 92.6 | 108 | 89.4 | 94.6 | 90 | 110 | 103 | 99 | 107 | 98.2 | 93.9 | 109 | 94.1 | 108 | 95.3 | 102 | 107 | 103 | 101 | 100 | 99.1 | 97.2 | 97.9 | 102 | 104 | > 10 | > 10 | > 10 | > 10 | > 10 | 0.3 | 0 | 0 | 0 | 0 |
| O=c1cc(N2CCOCC2)oc2c(-c3ccccc3)cccc12 | 109 | 94.9 | 89 | 96.5 | 81.9 | 98 | 93.7 | 97.4 | 98.2 | 76.5 | 93.5 | 101 | 110 | 105 | 86.1 | 97.5 | 95 | 94.2 | 97.8 | 92.3 | 99.8 | 97.4 | 96.1 | 92.4 | 77.1 | > 10 | > 10 | > 10 | > 10 | > 10 | 0.6 | 1.1 | 0.1 | 0 | 1.3 |
| Cn1c(NCCN(CCO)CCCc2ccc([N+](=O)[O-])cc2)cc(=O)n(C)c1=O [nifekalant] | 107 | 96.7 | 86.9 | 90.8 | 92.5 | 96.2 | 103 | 104 | 110 | 95.3 | 109 | 106 | 94 | 86.1 | 109 | 95.1 | 94.3 | 98.9 | 97.7 | 99.4 | 89.8 | 102 | 91.6 | 102 | 104 | > 10 | > 10 | > 10 | > 10 | > 10 | 1.8 | 0 | 0 | 0 | 0 |
| COc1cc(Br)c(Nc2nc(-c3c(C)nc4ncccn34)cs2)c(Br)c1 [PTC-209] | 95.4 | 91.5 | 96.1 | 77.8 | 16.7 | 109 | 102 | 98.9 | 83.2 | 41.2 | 97.1 | 97.5 | 100 | 71.3 | 16.1 | 97.7 | 101 | 98.8 | 55.3 | 11.8 | 99.3 | 99.3 | 95.7 | 43.1 | 15.7 | 1.5 | 1.44 | 1.3 | 0.986 | 0.633 | 8 | 5.7 | 8.7 | 10.4 | 11.7 |
| Nc1c(-c2cccc(C(F)(F)F)c2)nsc1C(=O)O [amflutizole] | 96.2 | 96.6 | 99.1 | 99.1 | 107 | 104 | 94.1 | 104 | 97 | 104 | 97.1 | 100 | 92.1 | 108 | 96.9 | 101 | 99.5 | 103 | 96.9 | 98.1 | 96.8 | 97.8 | 97.7 | 99.1 | 113 | > 10 | > 10 | > 10 | > 10 | > 10 | 0 | 0 | 0 | 0 | 0 |
| COc1cn(-c2ccc(-n3cccn3)cc2F)nc(-c2ccnn2-c2ccccc2)c1=O [TAK-063] | 88.1 | 95.7 | 91.1 | 97.4 | 105 | 92.1 | 95.4 | 98.8 | 102 | 109 | 99.7 | 95.5 | 102 | 105 | 106 | 97.3 | 99.6 | 97.1 | 101 | 102 | 91.7 | 97.3 | 103 | 90 | 104 | > 10 | > 10 | > 10 | > 10 | > 10 | 0 | 0 | 0 | 0 | 0 |
| CC1OC2(CS1)CN1CCC2CC1 (stereo not given) [cevimeline] | 98.3 | 88.1 | 91.3 | 91 | 96.3 | 106 | 92.9 | 102 | 97.1 | 103 | 107 | 97 | 94.9 | 89.2 | 111 | 99.1 | 98.9 | 99.7 | 106 | 106 | 96.7 | 91.5 | 92.7 | 89.7 | 102 | > 10 | > 10 | > 10 | > 10 | > 10 | 0 | 0 | 0 | 0 | 0 |
| CN1CCN(C(=O)c2nc3ccc(Cl)cc3[nH]2)CC1 | 106 | 100 | 96.5 | 92.2 | 90.9 | 100 | 99.9 | 87.9 | 96.9 | 101 | 104 | 107 | 96.7 | 106 | 93.8 | 105 | 97.1 | 103 | 98.1 | 101 | 97.9 | 106 | 97.8 | 102 | 104 | > 10 | > 10 | > 10 | > 10 | > 10 | 0 | 0 | 0 | 0 | 0 |
| CCN1CCCC1=O [1-ethyl-2-pyrrolidone] | 93.6 | 99.6 | 99.4 | 88 | 95.2 | 97.9 | 104 | 104 | 98.6 | 104 | 99.1 | 99.1 | 94 | 99.9 | 97.2 | 95.9 | 98.4 | 104 | 95.5 | 102 | 103 | 103 | 97 | 97.9 | 95.3 | > 10 | > 10 | > 10 | > 10 | > 10 | 0 | 0 | 0 | 0 | 0 |
| CC1(C)[C@H]2CC[C@]1(C)[C@@H](O)[C@H]2O [cis-exo-camphanediol-2,3] | 99.8 ± 5.1 | 104 ± 12 | 100 ± 9.5 | 102 ± 15 | 95.5 ± 5.4 | 104 ± 7.5 | 100 ± 1.9 | 106.2 ± 0.64 | 102 ± 5.9 | 97.85 ± 0.21 | 92 | 88.7 | 98.7 | 98.1 | 102 | 99.55 ± 0.071 | 106 ± 1.4 | 99 ± 1.6 | 99.5 ± 3.2 | 99 ± 5.7 | 97.8 ± 2.5 | 96.5 ± 10 | 96.8 ± 1.5 | 94.8 ± 6.7 | 95.6 ± 3.2 | > 10 | > 10 | > 10 | > 10 | > 10 | 0 | 0 | 0 | 0 | 0 |
